From patent US20250230193A1, “CYCLIC COMPOUND HAVING SELECTIVE KRAS INHIBITORY EFFECT ON HRAS AND NRAS” (CHUGAI SEIYAKU KABUSHIKI KAISHA, priority 2022, published 2025)
Where a SMILES comes first, the peptide text is derived from it. Bridges are numbered along the chain shown (N, C = ends). [ ]: non-standard residue; d: D form. The star is where a group is joined. hPhe(3-Cl-4-CF3) = N[C@@H](CCc1ccc(C(F)(F)F)c(Cl)c1)C(=O)O; 3Oxa8azabicyclo(3.2.1)octane = C1CC2COCC1N2*; NEtPhe(4-Me) = CCN[C@@H](Cc1ccc(C)cc1)C(=O)O; NMeAbu(4,4,4-F3) = CN[C@@H](CC(F)(F)F)C(=O)O; NMePhe(4-Me) = CN[C@@H](Cc1ccc(C)cc1)C(=O)O; NMeGly(cPent) = CN[C@H](C(=O)O)C1CCCC1; Hyp = O=C(O)[C@@H]1C[C@@H](O)CN1; NMeF = CN[C@@H](Cc1ccccc1)C(=O)O; NMeI = CC[C@H](C)[C@H](NC)C(=O)O; NMeD = CN[C@@H](CC(=O)O)C(=O)O; NMeL = CN[C@@H](CC(C)C)C(=O)O; NMeV = CN[C@H](C(=O)O)C(C)C; NMeS = CN[C@@H](CO)C(=O)O; Morpholide = C1CN(*)CCO1; NMeA = CN[C@@H](C)C(=O)O; NMeAib = CNC(C)(C)C(=O)O; Nle = CCCC[C@H](N)C(=O)O; Piperidide = C1CCN(*)CC1; Ac5c = NC1(C(=O)O)CCCC1; Aze = O=C(O)[C@@H]1CCN1; Sar = CNCC(=O)O

Experiments:
[1] = target: GDP-bound HRAS wild-type protein (Homo sapiens, UniProt P01112); experiment: Binding to HRAS by surface plasmon resonance (SPR), Single Cycle Kinetics; conditions: KD ratio HRAS/KRAS, SPR
Chain of GDP-bound HRAS wild-type protein (P01112 whole entry): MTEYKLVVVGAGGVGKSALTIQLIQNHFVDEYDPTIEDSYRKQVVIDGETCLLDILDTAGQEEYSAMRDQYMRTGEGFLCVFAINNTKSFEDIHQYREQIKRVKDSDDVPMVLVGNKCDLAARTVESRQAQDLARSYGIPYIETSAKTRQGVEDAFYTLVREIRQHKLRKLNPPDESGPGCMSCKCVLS

[2] = target: GDP-bound NRAS wild-type protein (Homo sapiens, UniProt P01111); experiment: Binding to NRAS by surface plasmon resonance (SPR), Single Cycle Kinetics; conditions: KD ratio NRAS/KRAS, SPR
Chain of GDP-bound NRAS wild-type protein (P01111 whole entry): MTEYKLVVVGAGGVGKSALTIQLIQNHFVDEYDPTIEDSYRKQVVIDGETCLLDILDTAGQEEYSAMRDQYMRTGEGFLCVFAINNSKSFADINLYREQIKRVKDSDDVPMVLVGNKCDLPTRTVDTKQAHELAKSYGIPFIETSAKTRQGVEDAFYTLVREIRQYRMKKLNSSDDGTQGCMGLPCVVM

Row | Compound | HRAS/KRAS (ratio of KD for GDP-bound HRAS wild-type to KD for KRAS) [1] | NRAS/KRAS (ratio of KD for GDP-bound NRAS wild-type to KD for KRAS) [2]
1 | CC[C@H](C)[C@@H]1NC(=O)[C@H](CC(F)(F)F)N(C)C(=O)C[C@@H](C(=O)N2CCOCC2)N(C)C(=O)[C@H](C2CCCC2)N(C)C(=O)C2(CCCC2)NC(=O)[C@@H]2CCCN2C(=O)[C@H](CCc2ccc(C(F)(F)F)c(Cl)c2)NC(=O)CN(C)C(=O)[C@H](Cc2ccc(C)cc2)N(CC)C(=O)CN(C)C(=O)CN(C)C1=O [PP0032] ([NMeAbu(4,4,4-F3)]I[Sar][Sar][NEtPhe(4-Me)][Sar][hPhe(3-Cl-4-CF3)]P[Ac5c][NMeGly(cPent)][NMeD]-Morpholide; lactam N-11) | C (A compound having a KD ratio of 0.1 or more and less than 3 is denoted as C) | C (A compound having a KD ratio of 0.1 or more and less than 3 is denoted as C)
2 | CC[C@H](C)[C@@H]1NC(=O)[C@H](CC(C)C)N(C)C(=O)C[C@@H](C(=O)N2CCOCC2)N(C)C(=O)[C@H](C2CCCC2)N(C)C(=O)C2(CCCC2)NC(=O)[C@@H]2CCCN2C(=O)[C@H](CCc2ccc(C(F)(F)F)c(Cl)c2)NC(=O)CN(C)C(=O)[C@H](Cc2ccc(C)cc2)N(C)C(=O)[C@H](CO)N(C)C(=O)CN(C)C1=O [PP0037] ([NMeL]I[Sar][NMeS][NMePhe(4-Me)][Sar][hPhe(3-Cl-4-CF3)]P[Ac5c][NMeGly(cPent)][NMeD]-Morpholide; lactam N-11) | C (A compound having a KD ratio of 0.1 or more and less than 3 is denoted as C) | C (A compound having a KD ratio of 0.1 or more and less than 3 is denoted as C)
3 | CC[C@H](C)[C@@H]1NC(=O)[C@H](CC(C)C)N(C)C(=O)C[C@@H](C(=O)N2CCOCC2)N(C)C(=O)[C@H](C2CCCC2)N(C)C(=O)C2(CCCC2)NC(=O)[C@@H]2CCCN2C(=O)[C@H](CCc2ccc(C(F)(F)F)c(Cl)c2)NC(=O)CN(C)C(=O)[C@H](Cc2ccccc2)N(C)C(=O)CN(C)C(=O)CN(C)C1=O [PP0039] ([NMeL]I[Sar][Sar][NMeF][Sar][hPhe(3-Cl-4-CF3)]P[Ac5c][NMeGly(cPent)][NMeD]-Morpholide; lactam N-11) | C (A compound having a KD ratio of 0.1 or more and less than 3 is denoted as C) | C (A compound having a KD ratio of 0.1 or more and less than 3 is denoted as C)
4 | CC[C@H](C)[C@@H]1NC(=O)[C@H](CC(C)C)N(C)C(=O)C[C@@H](C(=O)N2CCOCC2)N(C)C(=O)[C@H](C2CCCC2)N(C)C(=O)C2(CCCC2)NC(=O)[C@@H]2C[C@@H](O)CN2C(=O)[C@H](CCc2ccc(C(F)(F)F)c(Cl)c2)NC(=O)CN(C)C(=O)[C@H](Cc2ccc(C)cc2)N(CC)C(=O)CN(C)C(=O)CN(C)C1=O [PP0041] ([NMeL]I[Sar][Sar][NEtPhe(4-Me)][Sar][hPhe(3-Cl-4-CF3)][Hyp][Ac5c][NMeGly(cPent)][NMeD]-Morpholide; lactam N-11) | C (A compound having a KD ratio of 0.1 or more and less than 3 is denoted as C) | B (a compound having 3 or more and less than 10 is denoted as B)
5 | CCO[C@@H]1C[C@H]2C(=O)NC3(CCCC3)C(=O)N(C)[C@@H](C3CCCC3)C(=O)N(C)[C@H](C(=O)N3CCOCC3)CC(=O)N(C)[C@@H](CC(C)C)C(=O)N[C@@H]([C@@H](C)CC)C(=O)N(C)CC(=O)N(C)CC(=O)N(CC)[C@@H](Cc3ccc(C)cc3)C(=O)N(C)CC(=O)N[C@@H](CCc3ccc(C(F)(F)F)c(Cl)c3)C(=O)N2C1 [PP0042] ([NMeL]I[Sar][Sar][NEtPhe(4-Me)][Sar][hPhe(3-Cl-4-CF3)][Hyp](Et)[Ac5c][NMeGly(cPent)][NMeD]-Morpholide; lactam N-11) | C (A compound having a KD ratio of 0.1 or more and less than 3 is denoted as C) | C (A compound having a KD ratio of 0.1 or more and less than 3 is denoted as C)
6 | CC[C@H](C)[C@@H]1NC(=O)[C@H](CC(C)C)N(C)C(=O)C[C@@H](C(=O)N2CCOCC2)N(C)C(=O)[C@H]([C@@H](C)CC)N(C)C(=O)C2(CCCC2)NC(=O)[C@@H]2CCCN2C(=O)[C@H](CCc2ccc(C(F)(F)F)c(Cl)c2)NC(=O)CN(C)C(=O)[C@H](Cc2ccc(C)cc2)N(CC)C(=O)CN(C)C(=O)CN(C)C1=O [PP0043] ([NMeL]I[Sar][Sar][NEtPhe(4-Me)][Sar][hPhe(3-Cl-4-CF3)]P[Ac5c][NMeI][NMeD]-Morpholide; lactam N-11) | C (A compound having a KD ratio of 0.1 or more and less than 3 is denoted as C) | C (A compound having a KD ratio of 0.1 or more and less than 3 is denoted as C)
7 | CC[C@H](C)[C@@H]1NC(=O)[C@H](CC(C)C)N(C)C(=O)C[C@@H](C(=O)N2CCOCC2)N(C)C(=O)[C@H](C(C)C)N(C)C(=O)C2(CCCC2)NC(=O)[C@@H]2CCCN2C(=O)[C@H](CCc2ccc(C(F)(F)F)c(Cl)c2)NC(=O)CN(C)C(=O)[C@H](Cc2ccc(C)cc2)N(CC)C(=O)CN(C)C(=O)CN(C)C1=O [PP0044] ([NMeL]I[Sar][Sar][NEtPhe(4-Me)][Sar][hPhe(3-Cl-4-CF3)]P[Ac5c][NMeV][NMeD]-Morpholide; lactam N-11) | C (A compound having a KD ratio of 0.1 or more and less than 3 is denoted as C) | C (A compound having a KD ratio of 0.1 or more and less than 3 is denoted as C)
8 | CC[C@H](C)[C@@H]1NC(=O)[C@H](CC(C)C)N(C)C(=O)C[C@@H](C(=O)N2CCOCC2)N(C)C(=O)[C@H](CC(C)C)N(C)C(=O)C2(CCCC2)NC(=O)[C@@H]2CCCN2C(=O)[C@H](CCc2ccc(C(F)(F)F)c(Cl)c2)NC(=O)CN(C)C(=O)[C@H](Cc2ccc(C)cc2)N(CC)C(=O)CN(C)C(=O)CN(C)C1=O [PP0045] ([NMeL]I[Sar][Sar][NEtPhe(4-Me)][Sar][hPhe(3-Cl-4-CF3)]P[Ac5c][NMeL][NMeD]-Morpholide; lactam N-11) | C (A compound having a KD ratio of 0.1 or more and less than 3 is denoted as C) | C (A compound having a KD ratio of 0.1 or more and less than 3 is denoted as C)
9 | CCCC[C@@H]1NC(=O)[C@H](CCc2ccc(C(F)(F)F)c(Cl)c2)NC(=O)CN(C)C(=O)[C@H](Cc2ccc(C)cc2)N(C)C(=O)[C@@H]2CCN2C(=O)[C@H](C)N(C)C(=O)[C@H]([C@@H](C)CC)NC(=O)[C@H](CC(C)C)N(C)C(=O)C[C@@H](C(=O)N2CCCCC2)N(C)C(=O)[C@H](CC(C)C)NC(=O)C(C)(C)N(C)C1=O [PP0047] ([NMeL]I[NMeA][Aze][NMePhe(4-Me)][Sar][hPhe(3-Cl-4-CF3)][Nle][NMeAib]L[NMeD]-Piperidide; lactam N-11) | C (A compound having a KD ratio of 0.1 or more and less than 3 is denoted as C) | C (A compound having a KD ratio of 0.1 or more and less than 3 is denoted as C)
10 | CCCC[C@@H]1NC(=O)[C@H](CCc2ccc(C(F)(F)F)c(Cl)c2)NC(=O)CN(C)C(=O)[C@H](Cc2ccc(C)cc2)N(CC)C(=O)[C@@H]2CCN2C(=O)[C@H](C)N(C)C(=O)[C@H]([C@@H](C)CC)NC(=O)[C@H](CC(C)C)N(C)C(=O)C[C@@H](C(=O)N2CCCCC2)N(C)C(=O)[C@H](CC(C)C)NC(=O)C(C)(C)N(C)C1=O [PP0048] ([NMeL]I[NMeA][Aze][NEtPhe(4-Me)][Sar][hPhe(3-Cl-4-CF3)][Nle][NMeAib]L[NMeD]-Piperidide; lactam N-11) | C (A compound having a KD ratio of 0.1 or more and less than 3 is denoted as C) | C (A compound having a KD ratio of 0.1 or more and less than 3 is denoted as C)
11 | CCCC[C@@H]1NC(=O)[C@H](CCc2ccc(C(F)(F)F)c(Cl)c2)NC(=O)CN(C)C(=O)[C@H](Cc2ccc(C)cc2)N(C)C(=O)CN(C)C(=O)CN(C)C(=O)[C@H]([C@@H](C)CC)NC(=O)[C@H](CC(C)C)N(C)C(=O)C[C@@H](C(=O)N2CCCCC2)N(C)C(=O)[C@H](CC(C)C)NC(=O)C(C)(C)N(C)C1=O [PP0049] ([NMeL]I[Sar][Sar][NMePhe(4-Me)][Sar][hPhe(3-Cl-4-CF3)][Nle][NMeAib]L[NMeD]-Piperidide; lactam N-11) | C (A compound having a KD ratio of 0.1 or more and less than 3 is denoted as C) | C (A compound having a KD ratio of 0.1 or more and less than 3 is denoted as C)
12 | CCCC[C@@H]1NC(=O)[C@H](CCc2ccc(C(F)(F)F)c(Cl)c2)NC(=O)CN(C)C(=O)[C@H](Cc2ccc(C)cc2)N(CC)C(=O)CN(C)C(=O)CN(C)C(=O)[C@H]([C@@H](C)CC)NC(=O)[C@H](CC(C)C)N(C)C(=O)C[C@@H](C(=O)N2CCCCC2)N(C)C(=O)[C@H](CC(C)C)NC(=O)C(C)(C)N(C)C1=O [PP0050] ([NMeL]I[Sar][Sar][NEtPhe(4-Me)][Sar][hPhe(3-Cl-4-CF3)][Nle][NMeAib]L[NMeD]-Piperidide; lactam N-11) | C (A compound having a KD ratio of 0.1 or more and less than 3 is denoted as C) | B (a compound having 3 or more and less than 10 is denoted as B)
13 | CC[C@H](C)[C@@H]1NC(=O)[C@H](CC(C)C)N(C)C(=O)C[C@@H](C(=O)N2C3CCC2COC3)N(C)C(=O)[C@H](C2CCCC2)N(C)C(=O)C2(CCCC2)NC(=O)[C@@H]2CCCN2C(=O)[C@H](CCc2ccc(C(F)(F)F)c(Cl)c2)NC(=O)CN(C)C(=O)[C@H](Cc2ccc(C)cc2)N(CC)C(=O)CN(C)C(=O)CN(C)C1=O [PP0051] ([NMeL]I[Sar][Sar][NEtPhe(4-Me)][Sar][hPhe(3-Cl-4-CF3)]P[Ac5c][NMeGly(cPent)][NMeD]-{3Oxa8azabicyclo(3.2.1)octane}; lactam N-11) | C (A compound having a KD ratio of 0.1 or more and less than 3 is denoted as C) | C (A compound having a KD ratio of 0.1 or more and less than 3 is denoted as C)
